Consider four compounds from article PMC5058653, “A Fhit-mimetic peptide suppresses annexin A4-mediated chemoresistance to paclitaxel in lung cancer cells” (Oncotarget, 2016).

For series [1] the following is noted: culture medium over adherent cells, 24 h after administration, read-out MALDI mass spectrometry. From the text: We tested the stability of our peptides in the culture medium over adherent cells through Mass Spectroemtry-MALDI.
Another series has as its target T1, Annexin A4 (Homo sapiens, UniProt P09525).
T1 construct: endogenous in cells; host or cells: A549 total lysates
T1 sequence (P09525 1-319): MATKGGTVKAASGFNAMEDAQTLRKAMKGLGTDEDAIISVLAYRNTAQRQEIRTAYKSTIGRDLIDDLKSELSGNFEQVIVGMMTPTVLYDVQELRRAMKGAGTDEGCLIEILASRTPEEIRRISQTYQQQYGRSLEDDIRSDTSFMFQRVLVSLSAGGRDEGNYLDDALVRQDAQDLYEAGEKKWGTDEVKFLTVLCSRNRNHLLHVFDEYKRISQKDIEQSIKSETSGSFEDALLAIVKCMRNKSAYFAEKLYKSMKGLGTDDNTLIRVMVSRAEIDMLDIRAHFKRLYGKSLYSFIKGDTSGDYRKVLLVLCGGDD
The experiment in a line: GST pull-down from A549 total lysates, immunoblot for Annexin 4. Conditions: GSH resin beads, 12 h at 4°C. Format: binding. From the text:
In order to map the region of Fhit protein binding Annexin A4, we cloned downstream GST three truncated FHIT cDNAs, namely TR1 (332 bp), TR2 (212 bp) and TR3 (113 bp), all containing the N-terminus common to the wild-type Fhit protein. TR1, TR2, and TR3 correspond to the 111, 71, and 38 N-terminal aminoacids of Fhit protein, respectively (Figure 1A). Annexin A4 binds wild-type Fhit/GST fusion protein as well as all shorter forms of Fhit fusion proteins, indicating its binding to the N-terminus of Fhit (Figure 1B). In our previous paper, we reported that Fhit/Annexin A4 interaction was only detectable in the presence of DSP [19]. DSP is a cross-linker containing an amine-reactive N-hydroxysuccinimide (NHS); NHS esters react with primary amine group located at lysine (Lys, K) residue sidechain. Since Lys residues are abundant and easily accessible on the hydrophilic surface of most proteins they usually crosslink with high efficiency.
Figure 1 Fhit peptide interacts with Annexin 4 A. GST-Fhit fusion protein and three deletion mutant proteins. Fhit was deleted from the C-terminal site. B. GST-FHIT plasmids were amplified in BL21 bacteria by stimulation with IPTG […] for 6 h at 30°C. Recombinant GST-Fhit fusion proteins were purified with GSH resin beads and added to A549 total lysates. 12 h after incubation at 4°C, GSH resin beads were washed and proteins eluted. […]
Background: In western blotting, separated proteins are transferred to a membrane and probed.

The test system of another series is A549 cells. The experiment in a line: A549 tumor xenograft in nude mice, tumor weight. Conditions: s.c. A549 xenograft, paclitaxel alone 40 mg/kg single i.v. dose, 48 h, n = 5 mice per group. Format: in vivo, mouse. How it is done: We further investigated the in vivo effects of Tat-Fhit 7-13 peptide with or without paclitaxel treatment in a preclinical model of lung cancer, using six groups of mice (n = 5 mice per group). Each group was subcutaneously injected with 1×10^7 A549 cells. When tumors reached the diameter of 15 mm, three groups were treated either with a single administration of 40 mg/kg paclitaxel, or 50 mg/kg Tat-Fhit 7-13 peptide, or both; mice were monitored on a regular basis. The remaining three groups, used as controls, were either left untreated or treated with Tat-Fhit 7-13 scrambled or treated with Tat-Fhit 7-13 scrambled plus paclitaxel; 48 h after treatments, mice were sacrificed and tumors were evaluated by weight.
Figure 3 Tat-Fhit 7-13 peptide in combination with paclitaxel blocks in vivo tumor formation A., C. Nude mice were subcutaneously injected with […] A549 cells. When tumors reached 15 mm diameter, mice were mock-treated, treated paclitaxel (single IV administration of 40 mg/kg), with scrambled Tat peptide (50 mg/kg) alone or in combination with paclitaxel, with Tat-Fhit 7-13 peptide (50 mg/Kg) alone or in combination with paclitaxel; paclitaxel and peptides were injected in a single administration and mice were monitored on a regular basis. Two days later, mice were sacrificed and tumors were evaluated by percent A. and by weight C.. […]

No end group written: not given here.

“YGRKKRRQRRRGLSKQPHI [Tat-Fhit 7-13 scrambled peptide]”: in series [1], the “stability in the culture medium” value was “still stable and undegraded”.
Still for that read-out and setting: under “YGRKKRRQRRRGQHLIKPS [Tat-Fhit 7-13 peptide]” stands “still stable and undegraded”.
“wild-type Fhit/GST fusion protein: recombinant full-length Fhit fused to GST, expressed in E. coli BL21”: in the series with Annexin A4, the “binding of Annexin A4 (GST pull-down)” value was “binds”.
Regarding `CC(=O)O[C@H]1C(=O)[C@@]2(C)[C@H]([C@H](OC(=O)c3ccccc3)[C@]3(O)C[C@H](OC(=O)[C@H](O)[C@@H](NC(=O)c4ccccc4)c4ccccc4)C(C)=C1C3(C)C)[C@]1(OC(C)=O)CO[C@@H]1C[C@@H]2O` [paclitaxel], the “tumor wt, % of controls” value in the series on A549 cells is given as 60%.
